Assay results published in the OligoGym collection.
Where “and” joins values, the source holds several entries; their conditions need not be identical. Identical values can stand only once. After the bases stand the sugars from the 5' end (letter, count) and the backbone: PS all phosphorothioate, else s phosphorothioate and o phosphodiester by linkage. Methylation of C is not given here. e = 2'-O-(2-methoxyethyl) (MOE); k = constrained ethyl (cEt); d = 2'-deoxy (DNA)

Target: IRF4
Details: ASO

CACGAAGATTCAAAAG (sugars k3 d10 k3, PS)
target mRNA inhibition (SK-MEL-28, 4 µM): 10%

CACGAGGCACCGCACT (sugars k3 d10 k3, PS)
target mRNA inhibition (SK-MEL-28, 4 µM): -13%

CACTATGGTAGGAGTG (sugars k3 d10 k3, PS)
target mRNA inhibition (SK-MEL-28, 4 µM): -12%

CACTATTAAGAACTTG (sugars k3 d10 k3, PS)
target mRNA inhibition (SK-MEL-28, 4 µM): 33%

CACTCATCTTGACATT (sugars k3 d10 k3, PS)
target mRNA inhibition (SK-MEL-28, 4 µM): 36%

CACTTGTCTTGGGTGG (sugars k3 d10 k3, PS)
target mRNA inhibition (SK-MEL-28, 4 µM): 45%

CACTTTAAAAGTTGAC (sugars k3 d10 k3, PS)
target mRNA inhibition (SK-MEL-28, 4 µM): 28%

CAGAAATCACGAGGTT (sugars k3 d10 k3, PS)
target mRNA inhibition (MM.1R, 1 µM): 25%

CAGAAGATCTCTACTG (sugars k3 d10 k3, PS)
target mRNA inhibition (SK-MEL-28, 4 µM): 12%

CAGACCTTATGCTTGG (sugars k3 d10 k3, PS)
target mRNA inhibition (SK-MEL-28, 4 µM): 10%

CAGAGACGCGGTGAGA (sugars k3 d10 k3, PS)
target mRNA inhibition (SK-MEL-28, 4 µM): -61%

CAGAGCTCCGGAGTCA (sugars k3 d10 k3, PS)
target mRNA inhibition (MM.1R, 1 µM): -6%

CAGCAAGTGTCTTCCA (sugars k3 d10 k3, PS)
target mRNA inhibition (SK-MEL-28, 4 µM): 64%

CAGCATGAGCTCGGTC (sugars k3 d10 k3, PS)
target mRNA inhibition (MM.1R, 1 µM): 22%

CAGCATTGGACCCACG (sugars k3 d10 k3, PS)
target mRNA inhibition (MM.1R, 1 µM): 4%

CAGTACAGTCCACTCC (sugars k3 d10 k3, PS)
target mRNA inhibition (MM.1R, 1 µM): 5%

CAGTCTCAAAAACGGG (sugars k3 d10 k3, PS)
target mRNA inhibition (SK-MEL-28, 4 µM): 51%

CAGTGACTTGCATCCA (sugars kkdddddddddekeke, PS)
target mRNA inhibition (MM.1R, 1 µM): 34%

CAGTGACTTGCATCCA (sugars kkdddddddddkdkdk, PS)
target mRNA inhibition (MM.1R, 1 µM): 36%

CAGTGATGTCAGGTTT (sugars k2 d9 e3 k2, PS)
target mRNA inhibition (MM.1R, 0.074 µM): 0% | target mRNA inhibition (MM.1R, 0.222 µM): 12% | target mRNA inhibition (MM.1R, 0.666 µM): 34% | target mRNA inhibition (MM.1R, 1 µM): 56% | target mRNA inhibition (MM.1R, 2 µM): 57%

CAGTTGTAAATGAGTC (sugars k3 d9 k3 e1, PS)
target mRNA inhibition (MM.1R, 0.074 µM): 26% | target mRNA inhibition (MM.1R, 0.222 µM): 42% | target mRNA inhibition (MM.1R, 0.666 µM): 65% | target mRNA inhibition (MM.1R, 1 µM): 68% | target mRNA inhibition (MM.1R, 2 µM): 84%

CAGTTGTAAATGAGTC (sugars k3 d10 k3, PS)
target mRNA inhibition (SK-MEL-28, 4 µM): 89% and 86%

CATAGCTAGTTCATTC (sugars k3 d10 k3, PS)
target mRNA inhibition (SK-MEL-28, 4 µM): 35%

CATATTCCAACAGGCG (sugars k3 d10 k3, PS)
target mRNA inhibition (MM.1R, 1 µM): -1%

CATCACTCTAGTCAGT (sugars k3 d10 k3, PS)
target mRNA inhibition (SK-MEL-28, 4 µM): 59%

CATCACTTGGTCAATT (sugars k3 d10 k3, PS)
target mRNA inhibition (SK-MEL-28, 4 µM): 29%

CATCATGTAGTTGTGA (sugars k3 d10 k3, PS)
target mRNA inhibition (SK-MEL-28, 4 µM): 41%

CATGAAATCCAAGGTA (sugars k3 d10 k3, PS)
target mRNA inhibition (SK-MEL-28, 4 µM): 49%

CATGAGGGTGACACAC (sugars k3 d10 k3, PS)
target mRNA inhibition (SK-MEL-28, 4 µM): 47%

CATGATGTATACCAAC (sugars k3 d10 k3, PS)
target mRNA inhibition (SK-MEL-28, 4 µM): 51%

CATGGTATTTTTCCGT (sugars k3 d10 k3, PS)
target mRNA inhibition (MM.1R, 0.0625 µM): 4% | target mRNA inhibition (MM.1R, 0.25 µM): 36% | target mRNA inhibition (MM.1R, 1 µM): 38% and 48% | target mRNA inhibition (MM.1R, 4 µM): 66%

CATGGTTACTAATTCC (sugars k3 d10 k3, PS)
target mRNA inhibition (MM.1R, 1 µM): 25%

CATGTAAAGTCTGCTG (sugars k3 d10 k3, PS)
target mRNA inhibition (SK-MEL-28, 4 µM): 58%

CATTACTAGATTGTAG (sugars k3 d10 k3, PS)
target mRNA inhibition (SK-MEL-28, 4 µM): 9%

CATTACTTAGACATTA (sugars k3 d10 k3, PS)
target mRNA inhibition (SK-MEL-28, 4 µM): 19%

CATTTACTGTTACCGA (sugars k3 d10 k3, PS)
target mRNA inhibition (MM.1R, 0.074 µM): -14% | target mRNA inhibition (MM.1R, 0.222 µM): 0% | target mRNA inhibition (MM.1R, 0.666 µM): -9% | target mRNA inhibition (MM.1R, 2 µM): 10% | target mRNA inhibition (SK-MEL-28, 4 µM): 79%

CCAAACCTTAAGCTAT (sugars k3 d10 k3, PS)
target mRNA inhibition (MM.1R, 1 µM): 18% and 34%

CCAAAGGGTTCAGTGT (sugars k3 d10 k3, PS)
target mRNA inhibition (SK-MEL-28, 4 µM): 26%

CCAAATGTGGAGCTCC (sugars k3 d10 k3, PS)
target mRNA inhibition (SK-MEL-28, 4 µM): 23%

CCAAATTCCCGGAGGA (sugars k3 d10 k3, PS)
target mRNA inhibition (MM.1R, 1 µM): -25%

CCAACGACAGCATAGC (sugars k3 d10 k3, PS)
target mRNA inhibition (SK-MEL-28, 4 µM): 76%

CCAAGGATAACCTGAA (sugars k3 d10 k3, PS)
target mRNA inhibition (SK-MEL-28, 4 µM): 44%

CCAATACATATCCATG (sugars k3 d10 k3, PS)
target mRNA inhibition (SK-MEL-28, 4 µM): 60%

CCACACAAGTCTTAGG (sugars k3 d10 k3, PS)
target mRNA inhibition (MM.1R, 1 µM): 15%

CCACATACCTGAAACG (sugars k3 d10 k3, PS)
target mRNA inhibition (MM.1R, 1 µM): -9%

CCACATTAGCAATTAG (sugars k3 d10 k3, PS)
target mRNA inhibition (SK-MEL-28, 4 µM): 19%

CCACTGGCGGAGCTTC (sugars k3 d10 k3, PS)
target mRNA inhibition (SK-MEL-28, 4 µM): 36%

CCAGCTTCGGTCGAGG (sugars k3 d10 k3, PS)
target mRNA inhibition (MM.1R, 1 µM): -5%

CCAGGAAACCGCTGGC (sugars k3 d10 k3, PS)
target mRNA inhibition (SK-MEL-28, 4 µM): 38%

CCAGGTTAAACAGGAA (sugars k3 d10 k3, PS)
target mRNA inhibition (SK-MEL-28, 4 µM): 6%

CCATAGAGCCAGAGCA (sugars k3 d10 k3, PS)
target mRNA inhibition (SK-MEL-28, 4 µM): 64%

CCATGGGAGATCCGGC (sugars k3 d10 k3, PS)
target mRNA inhibition (SK-MEL-28, 4 µM): 54%

CCATTTAATCTGTCTA (sugars k3 d10 k3, PS)
target mRNA inhibition (SK-MEL-28, 4 µM): 28%

CCCAAAATACTTTGCA (sugars k3 d10 k3, PS)
target mRNA inhibition (SK-MEL-28, 4 µM): 64%

CCCAAAGGGCATCCTC (sugars k3 d10 k3, PS)
target mRNA inhibition (SK-MEL-28, 4 µM): 41%

CCCAAGATCGAGCGGT (sugars k3 d10 k3, PS)
target mRNA inhibition (SK-MEL-28, 4 µM): 28%

CCCAAGCCTTGAAGAG (sugars k4 d8 k4, PS)
target mRNA inhibition (SK-MEL-28, 4 µM): 22%

CCCATCGAATCTGCCC (sugars k3 d10 k3, PS)
target mRNA inhibition (MM.1R, 1 µM): -24%

CCCCAGGGCCCTCGGT (sugars k3 d10 k3, PS)
target mRNA inhibition (SK-MEL-28, 4 µM): 18%

CCCCGTATCCCCGTAT (sugars k3 d10 k3, PS)
target mRNA inhibition (SK-MEL-28, 4 µM): 45%

CCCGACACGCGCCGCT (sugars k3 d10 k3, PS)
target mRNA inhibition (SK-MEL-28, 4 µM): 12%

CCCTAAGTTTAATTTA (sugars k3 d10 k3, PS)
target mRNA inhibition (SK-MEL-28, 4 µM): -3%

CCCTAGGTCATACCCT (sugars k3 d10 k3, PS)
target mRNA inhibition (SK-MEL-28, 4 µM): 57%

CCCTCATCACCGAACA (sugars k3 d10 k3, PS)
target mRNA inhibition (MM.1R, 1 µM): -25%

CCCTTATTAGACTGAC (sugars k3 d10 k3, PS)
target mRNA inhibition (SK-MEL-28, 4 µM): 67%

CCCTTGCTGCAAATCC (sugars k3 d10 k3, PS)
target mRNA inhibition (MM.1R, 1 µM): -4%

CCGCACTCACTCGCAG (sugars k3 d10 k3, PS)
target mRNA inhibition (SK-MEL-28, 4 µM): 8%

CCGCAGAGAGCTAGCA (sugars k3 d10 k3, PS)
target mRNA inhibition (SK-MEL-28, 4 µM): -6%

CCGCAGCCCAAAGGCT (sugars k3 d10 k3, PS)
target mRNA inhibition (MM.1R, 1 µM): 4%

CCGCGCTCATGCCGAA (sugars k3 d10 k3, PS)
target mRNA inhibition (SK-MEL-28, 4 µM): 45%

CCGCTGAGAGCCGAGG (sugars k3 d10 k3, PS)
target mRNA inhibition (SK-MEL-28, 4 µM): -4%

CCGGACCCCGGAGCAG (sugars k3 d10 k3, PS)
target mRNA inhibition (SK-MEL-28, 4 µM): -24%

CCGTCCGCGCCCGCGC (sugars k3 d10 k3, PS)
target mRNA inhibition (SK-MEL-28, 4 µM): 61%

CCGTGGTGAGCAAACG (sugars k3 d10 k3, PS)
target mRNA inhibition (SK-MEL-28, 4 µM): 32%

CCTAAGTACCTGAAAT (sugars k3 d10 k3, PS)
target mRNA inhibition (SK-MEL-28, 4 µM): 11%

CCTAATCTACAACAAA (sugars k3 d10 k3, PS)
target mRNA inhibition (SK-MEL-28, 4 µM): 15%
